Experimental data as given in ChEMBL document CHEMBL3044634, “Synthesis and evaluation of antibacterial and antifungal activities of new (Z)-3-bromo-4-(1,3-diaryl-1H-pyrazol-4-yl)but-3-en-2-ones and 4-(3-methyl-1-phenyl-1H-pyrazol-5-yl)-1,3-diaryl-1H-pyrazoles” (2013).
≈ marks a conversion by molar mass, not a printed value. Calls of active or inactive are those of the source. No cut-off for these calls is given here.

Columns and labels:
Aspergillus niger = experiment: Growth inhibition of Aspergillus niger at 4 mg/ml after 7 days by poisoned-food technique; type: functional; conditions: 168 h, read-out: GI
Aspergillus flavus = experiment: Growth inhibition of Aspergillus flavus at 4 mg/ml after 7 days by poisoned-food technique; type: functional; conditions: 168 h, read-out: GI
Bacillus subtilis [1] = experiment: Antibacterial activity against Bacillus subtilis MTCC 121 after 24 hr by macrodilution tube method; type: functional; conditions: MTCC 121, 24 h
Staphylococcus aureus [2] = experiment: Antibacterial activity against Staphylococcus aureus MTCC 96 after 24 hr by macrodilution tube method; type: functional; conditions: MTCC 96, 24 h
Escherichia coli = experiment: Antibacterial activity against Escherichia coli MTCC 1652 at 2 mg/ml after 24 hr by agar well diffusion method; type: functional, organism-based
Bacillus subtilis [3] = experiment: Antibacterial activity against Bacillus subtilis MTCC 121 at 2 mg/ml after 24 hr by agar well diffusion method; type: functional; conditions: MTCC 121, 24 h, read-out: DIZ
Staphylococcus aureus [4] = experiment: Antibacterial activity against Staphylococcus aureus MTCC 96 at 2 mg/ml after 24 hr by agar well diffusion method; type: functional; conditions: MTCC 96, 24 h, read-out: DIZ
Pseudomonas aeruginosa = experiment: microbe, parasite or virus in culture; conditions: MTCC 741, 24 h, read-out: DIZ
Description: Antibacterial activity against Pseudomonas aeruginosa MTCC 741 at 2 mg/ml after 24 hr by agar well diffusion method

Row | SMILES | inhibition of growth at 4000 µg/mL (Aspergillus niger) | inhibition of growth at 4000 µg/mL (Aspergillus flavus) | MIC (Bacillus subtilis [1]) | MIC (Staphylococcus aureus [2]) | Activity (Escherichia coli) | zone of inhibition at 2000 µg/mL (Bacillus subtilis [3]) | zone of inhibition at 2000 µg/mL (Staphylococcus aureus [4]) | zone of inhibition at 2000 µg/mL (Pseudomonas aeruginosa)
1 | COc1ccc(-c2nn(-c3ccccc3)cc2/C=C(\Br)C(C)=O)cc1 | 45.5% | 44.4% | 128 µg/mL (≈ 322 µM) | 128 µg/mL (≈ 322 µM) | inactive | 16.3 mm | 15.6 mm | 
2 | Cc1ccc(-c2nn(-c3ccccc3)cc2-c2cc(C)nn2-c2ccccc2)cc1 | 44.4% | 45.5% | 128 µg/mL (≈ 328 µM) | 256 µg/mL (≈ 656 µM) | inactive | 16.3 mm | 14.6 mm | 
3 | CC(=O)/C(Br)=C/c1cn(-c2ccccc2)nc1-c1ccccc1 | 51.1% | 48.8% | 128 µg/mL (≈ 349 µM) | 128 µg/mL (≈ 349 µM) | inactive | 16.6 mm | 15.3 mm | 
4 | COc1ccc(-c2nn(-c3ccc([N+](=O)[O-])cc3)cc2-c2cc(C)nn2-c2ccccc2)cc1 | 46.6% | 44.4% | 128 µg/mL (≈ 284 µM) | 256 µg/mL (≈ 567 µM) | inactive | 14 mm | 15.3 mm | 
5 | CC(=O)/C(Br)=C/c1cn(-c2ccccc2)nc1-c1ccc([N+](=O)[O-])cc1 | 48.8% | 52.2% | 128 µg/mL (≈ 310 µM) | 128 µg/mL (≈ 310 µM) | inactive | 17.6 mm | 16 mm | 
6 | Cc1cc(-c2cn(-c3ccc([N+](=O)[O-])cc3)nc2-c2ccc(F)cc2)n(-c2ccccc2)n1 | 44.4% | 47.7% | 128 µg/mL (≈ 291 µM) | 256 µg/mL (≈ 583 µM) | inactive | 15.6 mm | 13.6 mm | 
7 | Cc1cc(-c2cn(-c3ccccc3)nc2-c2ccc(Br)cc2)n(-c2ccccc2)n1 | 55.5% | 52.2% | 32 µg/mL (≈ 70.3 µM) | 64 µg/mL (≈ 141 µM) | inactive | 20.6 mm | 19.3 mm | 
8 | O=C(O)c1cn(C2CC2)c2cc(N3CCNCC3)c(F)cc2c1=O [CIPROFLOXACIN] |  |  | 5 µg/mL (≈ 15.1 µM) | 5 µg/mL (≈ 15.1 µM) |  | 24 mm | 26 mm | 25.3 mm
9 | CC(=O)/C(Br)=C/c1cn(-c2ccccc2)nc1-c1ccc(C)cc1 | 51.1% | 52.2% | 128 µg/mL (≈ 336 µM) | 64 µg/mL (≈ 168 µM) | inactive | 17 mm | 18.3 mm | 
10 | Cc1cc(-c2cn(-c3ccccc3)nc2-c2ccccc2)n(-c2ccccc2)n1 | 44.4% | 46.6% | 128 µg/mL (≈ 340 µM) | 128 µg/mL (≈ 340 µM) | inactive | 15.6 mm | 16.3 mm | 
11 | OC(Cn1cncn1)(Cn1cncn1)c1ccc(F)cc1F [FLUCONAZOLE] | 81.1% | 77.7% |  |  |  |  |  | 
12 | COc1ccc(-c2nn(-c3ccc([N+](=O)[O-])cc3)cc2/C=C(\Br)C(C)=O)cc1 | 45.5% | 50% | 128 µg/mL (≈ 289 µM) | 128 µg/mL (≈ 289 µM) | inactive | 16 mm | 15.6 mm | 
13 | Cc1cc(-c2cn(-c3ccccc3)nc2-c2ccc([N+](=O)[O-])cc2)n(-c2ccccc2)n1 | 51.1% | 53.3% | 64 µg/mL (≈ 152 µM) | 64 µg/mL (≈ 152 µM) | inactive | 18.6 mm | 17.6 mm | 
14 | CC(=O)/C(Br)=C/c1cn(-c2ccccc2)nc1-c1ccc(F)cc1 | 53.3% | 55.5% | 32 µg/mL (≈ 83.1 µM) | 32 µg/mL (≈ 83.1 µM) | inactive | 21.6 mm | 20.6 mm | 
15 | Cc1cc(-c2cn(-c3ccccc3)nc2-c2ccc(Cl)cc2)n(-c2ccccc2)n1 | 48.8% | 51.1% | 128 µg/mL (≈ 312 µM) | 256 µg/mL (≈ 623 µM) | inactive | 16.3 mm | 14.3 mm | 
16 | CC(=O)/C(Br)=C/c1cn(-c2ccc([N+](=O)[O-])cc2)nc1-c1ccc(F)cc1 | 48.8% | 50% | 128 µg/mL (≈ 298 µM) | 128 µg/mL (≈ 298 µM) | inactive | 17.3 mm | 16.6 mm | 
17 | COc1ccc(-c2nn(-c3ccccc3)cc2-c2cc(C)nn2-c2ccccc2)cc1 | 41.1% | 44.4% | 256 µg/mL (≈ 630 µM) | 128 µg/mL (≈ 315 µM) | inactive | 14 mm | 15.3 mm | 
18 | CC(=O)/C(Br)=C/c1cn(-c2ccccc2)nc1-c1ccc(Cl)cc1 | 50% | 45.5% | 128 µg/mL (≈ 319 µM) | 256 µg/mL (≈ 637 µM) | inactive | 16.3 mm | 14.6 mm | 
19 | Cc1cc(-c2cn(-c3ccccc3)nc2-c2ccc(F)cc2)n(-c2ccccc2)n1 | 43.3% | 44.4% | 128 µg/mL (≈ 325 µM) | 128 µg/mL (≈ 325 µM) | inactive | 16.3 mm | 15 mm | 
20 | Cc1cc(-c2cn(-c3ccc([N+](=O)[O-])cc3)nc2-c2ccccc2)n(-c2ccccc2)n1 | 43.3% | 45.5% | 256 µg/mL (≈ 607 µM) | 256 µg/mL (≈ 607 µM) | inactive | 14.3 mm | 13.6 mm | 
21 | CC(=O)/C(Br)=C/c1cn(-c2ccc([N+](=O)[O-])cc2)nc1-c1ccccc1 | 51.1% | 53.3% | 128 µg/mL (≈ 310 µM) | 64 µg/mL (≈ 155 µM) | inactive | 17.3 mm | 19.3 mm | 
22 | CC(=O)/C(Br)=C/c1cn(-c2ccccc2)nc1-c1ccc(Br)cc1 | 55.5% | 58.8% | 64 µg/mL (≈ 143 µM) | 32 µg/mL (≈ 71.7 µM) | inactive | 19.3 mm | 21.3 mm | 
